Experimental data from patent US20240043404A1 (AbbVie Inc., priority 2009, published 2024).

System: RS4;11 cells
Test: RS4;11 cell viability assay (CellTiter Glo);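 further: acute lymphoblastic leukemia line RS4,11, EC50 derived from percentage of viable cells after treatment relative to untreated controls, cell killing taken as a measure of Bcl-2 inhibition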
Type: cell-based, human
Conditions: Homo sapiens, RS4-11, 48 h, 50,000 cells per well, 10% human serum, 48 hours; read-out: RS4; 11 EC50 Values
Description: The acute lymphoblastic leukemia (ALL) cell line RS4;11 was used as the primary human cell line to assess the cellular activity of Bcl-2 selective agents in vitro and their efficacy in vivo.
Cell cytotoxicity EC50 values were assessed using CellTiter Glo (Promega) according to the manufacturer's recommendations. The EC50 values were determined as a percentage of viable cells following treatment compared to the untreated control cells.

SMILES	EC50 [nM]
COc1cccc(CNc2ccc(S(=O)(=O)NC(=O)c3ccc(N4CCN(CC5=C(c6ccc(Cl)cc6)CC(C)(C)CC5)CC4)cc3Oc3cnc4[nH]ccc4c3)cc2[N+](=O)[O-])c1 [Example 176, 4-(4-{[2-(4-chlorophenyl)-4,4-dimethylcyclohex-1-en-1-yl]methyl}piperazin-1-yl)-N-({4-[(3-methoxybenzyl)amino]-3-nitrophenyl}sulfonyl)-2-(1H-pyrrolo[2,3-b]pyridin-5-yloxy)benzamide]	134
CC1(C)CCC(CN2CCN(c3ccc(C(=O)NS(=O)(=O)c4ccc(NCc5ccc(OC(F)F)cc5)c([N+](=O)[O-])c4)c(Oc4cnc5[nH]ccc5c4)c3)CC2)=C(c2ccc(Cl)cc2)C1 [Example 177, 4-(4-{[2-(4-chlorophenyl)-4,4-dimethylcyclohex-1-en-1-yl]methyl}piperazin-1-yl)-N-[(4-{[4-(difluoromethoxy)benzyl]amino}-3-nitrophenyl)sulfonyl]-2-(1H-pyrrolo[2,3-b]pyridin-5-yloxy)benzamide]	159
CC1(C)CCC(CN2CCN(c3ccc(C(=O)NS(=O)(=O)c4ccc(NC5CCC6(CC5)OCCO6)c([N+](=O)[O-])c4)c(Oc4cnc5[nH]ccc5c4)c3)CC2)=C(c2ccc(Cl)cc2)C1 [Example 178, 4-(4-{[2-(4-chlorophenyl)-4,4-dimethylcyclohex-1-en-1-yl]methyl}piperazin-1-yl)-N-{[4-(1,4-dioxaspiro[4.5]dec-8-ylamino)-3-nitrophenyl]sulfonyl}-2-(1H-pyrrolo[2,3-b]pyridin-5-yloxy)benzamide]	202
CC(=O)N[C@H]1CC[C@H](Nc2ccc(S(=O)(=O)NC(=O)c3ccc(N4CCN(CC5=C(c6ccc(Cl)cc6)CC(C)(C)CC5)CC4)cc3Oc3cnc4[nH]ccc4c3)cc2[N+](=O)[O-])CC1 [Example 179, Trans-N-[(4-{[4-(acetylamino)cyclohexyl]amino}-3-nitrophenyl)sulfonyl]-4-(4-{[2-(4-chlorophenyl)-4,4-dimethylcyclohex-1-en-1-yl]methyl}piperazin-1-yl)-2-(1H-pyrrolo[2,3-b]pyridin-5-yloxy)benzamide]	42.7
CC1(C)CCC(CN2CCN(c3ccc(C(=O)NS(=O)(=O)c4ccc(N[C@H]5CCN(CCF)C5)c([N+](=O)[O-])c4)c(Oc4cnc5[nH]ccc5c4)c3)CC2)=C(c2ccc(Cl)cc2)C1 [Example 181, 4-(4-{[2-(4-chlorophenyl)-4,4-dimethylcyclohex-1-en-1-yl]methyl}piperazin-1-yl)-N-[(4-{[(3S)-1-(2-fluoroethyl)pyrrolidin-3-yl]amino}-3-nitrophenyl)sulfonyl]-2-(1H-pyrrolo[2,3-b]pyridin-5-yloxy)benzamide]	106
CC1(C)CCC(CN2CCN(c3ccc(C(=O)NS(=O)(=O)c4ccc(N[C@H]5CCN(CC(F)F)C5)c([N+](=O)[O-])c4)c(Oc4cnc5[nH]ccc5c4)c3)CC2)=C(c2ccc(Cl)cc2)C1 [Example 182, 4-(4-{[2-(4-chlorophenyl)-4,4-dimethylcyclohex-1-en-1-yl]methyl}piperazin-1-yl)-N-[(4-{[(3S)-1-(2,2-difluoroethyl)pyrrolidin-3-yl]amino}-3-nitrophenyl)sulfonyl]-2-(1H-pyrrolo[2,3-b]pyridin-5-yloxy)benzamide]	123
CC1(C)CCC(CN2CCN(c3ccc(C(=O)NS(=O)(=O)c4ccc(NCc5ccc(O)cc5)c([N+](=O)[O-])c4)c(Oc4cnc5[nH]ccc5c4)c3)CC2)=C(c2ccc(Cl)cc2)C1 [Example 185, 4-(4-{[2-(4-chlorophenyl)-4,4-dimethylcyclohex-1-en-1-yl]methyl}piperazin-1-yl)-N-({4-[(4-hydroxybenzyl)amino]-3-nitrophenyl}sulfonyl)-2-(1H-pyrrolo[2,3-b]pyridin-5-yloxy)benzamide]	27.5
CC1(C)CCC(CN2CCN(c3ccc(C(=O)NS(=O)(=O)c4ccc(NCc5cccc(O)c5)c([N+](=O)[O-])c4)c(Oc4cnc5[nH]ccc5c4)c3)CC2)=C(c2ccc(Cl)cc2)C1 [Example 186, 4-(4-{[2-(4-chlorophenyl)-4,4-dimethylcyclohex-1-en-1-yl]methyl}piperazin-1-yl)-N-({4-[(3-hydroxybenzyl)amino]-3-nitrophenyl}sulfonyl)-2-(1H-pyrrolo[2,3-b]pyridin-5-yloxy)benzamide]	64.4
CC1(C)CCC(CN2CCN(c3ccc(C(=O)NS(=O)(=O)c4ccc(NCc5cccc(OC(F)F)c5)c([N+](=O)[O-])c4)c(Oc4cnc5[nH]ccc5c4)c3)CC2)=C(c2ccc(Cl)cc2)C1 [Example 187, 4-(4-{[2-(4-chlorophenyl)-4,4-dimethylcyclohex-1-en-1-yl]methyl}piperazin-1-yl)-N-[(4-{[3-(difluoromethoxy)benzyl]amino}-3-nitrophenyl)sulfonyl]-2-(1H-pyrrolo[2,3-b]pyridin-5-yloxy)benzamide]	215
CC1(C)CCC(CN2CCN(c3ccc(C(=O)NS(=O)(=O)c4ccc(N[C@H]5CC[C@H](NS(C)(=O)=O)CC5)c([N+](=O)[O-])c4)c(Oc4cnc5[nH]ccc5c4)c3)CC2)=C(c2ccc(Cl)cc2)C1 [Example 189, Trans-4-(4-{[2-(4-chlorophenyl)-4,4-dimethylcyclohex-1-en-1-yl]methyl}piperazin-1-yl)-N-{[4-({4-[(methylsulfonyl)amino]cyclohexyl}amino)-3-nitrophenyl]sulfonyl}-2-(1H-pyrrolo[2,3-b]pyridin-5-yloxy)benzamide]	144
CC1(C)CCC(CN2CCN(c3ccc(C(=O)NS(=O)(=O)c4ccc(NC5CCN(C6CC6)CC5)c(S(=O)(=O)C(F)(F)F)c4)c(Oc4cnc5[nH]ccc5c4)c3)CC2)=C(c2ccc(Cl)cc2)C1 [Example 190, 4-(4-{[2-(4-chlorophenyl)-4,4-dimethylcyclohex-1-en-1-yl]methyl}piperazin-1-yl)-N-({4-[(1-cyclopropylpiperidin-4-yl)amino]-3-[(trifluoromethyl)sulfonyl]phenyl}sulfonyl)-2-(1H-pyrrolo[2,3-b]pyridin-5-yloxy)benzamide]	551
CC1(C)CCC(CN2CCN(c3ccc(C(=O)NS(=O)(=O)c4ccc(NCc5ccc(OCCN6CCOCC6)cc5)c([N+](=O)[O-])c4)c(Oc4cnc5[nH]ccc5c4)c3)CC2)=C(c2ccc(Cl)cc2)C1 [Example 198, 4-(4-{[2-(4-chlorophenyl)-4,4-dimethylcyclohex-1-en-1-yl]methyl}piperazin-1-yl)-N-[(4-{[4-(2-morpholin-4-ylethoxy)benzyl]amino}-3-nitrophenyl)sulfonyl]-2-(1H-pyrrolo[2,3-b]pyridin-5-yloxy)benzamide]	36.2

The next compounds have a lower EC50 than those just listed; values first:

EC50 [nM]	SMILES
12.5	CN(C)CCCOc1ccc(CNc2ccc(S(=O)(=O)NC(=O)c3ccc(N4CCN(CC5=C(c6ccc(Cl)cc6)CC(C)(C)CC5)CC4)cc3Oc3cnc4[nH]ccc4c3)cc2[N+](=O)[O-])cc1 [Example 197, 4-(4-{[2-(4-chlorophenyl)-4,4-dimethylcyclohex-1-en-1-yl]methyl}piperazin-1-yl)-N-{[4-({4-[3-(dimethylamino)propoxy]benzyl}amino)-3-nitrophenyl]sulfonyl}-2-(1H-pyrrolo[2,3-b]pyridin-5-yloxy)benzamide]
11.8	CC1(C)CCC(CN2CCN(c3ccc(C(=O)NS(=O)(=O)c4ccc(N[C@@H]5CCN(CC(F)F)C5)c([N+](=O)[O-])c4)c(Oc4cnc5[nH]ccc5c4)c3)CC2)=C(c2ccc(Cl)cc2)C1 [Example 180, 4-(4-{[2-(4-chlorophenyl)-4,4-dimethylcyclohex-1-en-1-yl]methyl}piperazin-1-yl)-N-[(4-{[(3R)-1-(2,2-difluoroethyl)pyrrolidin-3-yl]amino}-3-nitrophenyl)sulfonyl]-2-(1H-pyrrolo[2,3-b]pyridin-5-yloxy)benzamide]
8.19	CC1(C)CCC(CN2CCN(c3ccc(C(=O)NS(=O)(=O)c4ccc(OCC5(F)CCN(S(C)(=O)=O)CC5)c([N+](=O)[O-])c4)c(Oc4cnc5[nH]ccc5c4)c3)CC2)=C(c2ccc(Cl)cc2)C1 [Example 194, 4-(4-{[2-(4-chlorophenyl)-4,4-dimethylcyclohex-1-en-1-yl]methyl}piperazin-1-yl)-N-[(4-{[4-fluoro-1-(methylsulfonyl)piperidin-4-yl]methoxy}-3-nitrophenyl)sulfonyl]-2-(1H-pyrrolo[2,3-b]pyridin-5-yloxy)benzamide]
2.41	CC1(C)CCC(CN2CCN(c3ccc(C(=O)NS(=O)(=O)c4ccc(OCC5(F)CCN(C6CCOCC6)CC5)c([N+](=O)[O-])c4)c(Oc4cnc5[nH]ccc5c4)c3)CC2)=C(c2ccc(Cl)cc2)C1 [Example 192, 4-(4-{[2-(4-chlorophenyl)-4,4-dimethylcyclohex-1-en-1-yl]methyl}piperazin-1-yl)-N-({4-[(4-fluoro-1-tetrahydro-2H-pyran-4-ylpiperidin-4-yl)methoxy]-3-nitrophenyl}sulfonyl)-2-(1H-pyrrolo[2,3-b]pyridin-5-yloxy)benzamide]
2.07	CC1(C)CCC(CN2CCN(c3ccc(C(=O)NS(=O)(=O)c4ccc(NC[C@H]5CCN(C6COC6)C5)c([N+](=O)[O-])c4)c(Oc4cnc5[nH]ccc5c4)c3)CC2)=C(c2ccc(Cl)cc2)C1 [Example 195, 4-(4-{[2-(4-chlorophenyl)-4,4-dimethylcyclohex-1-en-1-yl]methyl}piperazin-1-yl)-N-{[3-nitro-4-({[(3R)-1-oxetan-3-ylpyrrolidin-3-yl]methyl}amino)phenyl]sulfonyl}-2-(1H-pyrrolo[2,3-b]pyridin-5-yloxy)benzamide]
0.76	CC1(C)CCC(CN2CCN(c3ccc(C(=O)NS(=O)(=O)c4ccc(OCC5(F)CCN(C6CCOC6)CC5)c([N+](=O)[O-])c4)c(Oc4cnc5[nH]ccc5c4)c3)CC2)=C(c2ccc(Cl)cc2)C1 (stereo not drawn) [Example 193, 4-(4-{[2-(4-chlorophenyl)-4,4-dimethylcyclohex-1-en-1-yl]methyl}piperazin-1-yl)-N-({4-[(4-fluoro-1-tetrahydrofuran-3-ylpiperidin-4-yl)methoxy]-3-nitrophenyl}sulfonyl)-2-(1H-pyrrolo[2,3-b]pyridin-5-yloxy)benzamide]
